Data from patent US20260184713A1, “KINASE INHIBITORS” (The United States of America, as represented by the …, priority 2022, published 2026).

Experiments:
PKAα = PKAα (Homo sapiens, UniProt P17612); assay: HOTSPOT radiometric kinase assay
Procedure: The differential was calculated as follows: IC50 (kinase)/IC50 (PKG1a).

DYRK2 = target: T1, DYRK2 (Homo sapiens, UniProt Q92630); assay: HOTSPOT radiometric kinase assay; format: biochemical; conditions: 50 nM, 10 μM ATP
T1 construct: purchased Reaction Biology Corp
T1 sequence (Q92630 1-601): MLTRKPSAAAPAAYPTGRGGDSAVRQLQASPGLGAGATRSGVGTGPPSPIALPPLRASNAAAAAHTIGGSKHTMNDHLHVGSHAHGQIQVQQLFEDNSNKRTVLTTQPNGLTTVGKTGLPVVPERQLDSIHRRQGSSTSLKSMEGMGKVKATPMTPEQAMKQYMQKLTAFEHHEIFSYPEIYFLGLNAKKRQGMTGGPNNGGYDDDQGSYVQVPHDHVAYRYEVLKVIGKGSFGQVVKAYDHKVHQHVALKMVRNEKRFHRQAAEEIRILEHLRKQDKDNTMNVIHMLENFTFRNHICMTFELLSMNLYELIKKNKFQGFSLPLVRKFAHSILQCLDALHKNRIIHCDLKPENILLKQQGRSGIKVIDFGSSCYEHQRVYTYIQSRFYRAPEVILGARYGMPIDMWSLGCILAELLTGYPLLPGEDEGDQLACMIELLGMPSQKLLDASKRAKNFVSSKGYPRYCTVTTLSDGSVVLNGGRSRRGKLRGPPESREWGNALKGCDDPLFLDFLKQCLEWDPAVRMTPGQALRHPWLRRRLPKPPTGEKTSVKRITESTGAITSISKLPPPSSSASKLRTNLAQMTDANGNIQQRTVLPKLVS

wide-type PKA (wt-PKA) = wide-type PKA (wt-PKA) (Homo sapiens, UniProt P17612); assay: modified sandwich ELISA, wild-type PKA; format: biochemical; conditions: read-out: IC50 against wt-PKA
FLT1/VEGFR1 = FLT1/VEGFR1 (Homo sapiens, UniProt P17948); assay: HOTSPOT radiometric kinase assay
[1] = system: panel of 370 human protein kinases; assay: pan human kinome profiling (370 kinases); conditions: 50 nM; panel of 370 kinases
CAMK1δ = CAMK1δ (Homo sapiens, UniProt Q8IU85); assay: HOTSPOT radiometric kinase assay
Chain of CAMK1δ (Q8IU85 whole entry): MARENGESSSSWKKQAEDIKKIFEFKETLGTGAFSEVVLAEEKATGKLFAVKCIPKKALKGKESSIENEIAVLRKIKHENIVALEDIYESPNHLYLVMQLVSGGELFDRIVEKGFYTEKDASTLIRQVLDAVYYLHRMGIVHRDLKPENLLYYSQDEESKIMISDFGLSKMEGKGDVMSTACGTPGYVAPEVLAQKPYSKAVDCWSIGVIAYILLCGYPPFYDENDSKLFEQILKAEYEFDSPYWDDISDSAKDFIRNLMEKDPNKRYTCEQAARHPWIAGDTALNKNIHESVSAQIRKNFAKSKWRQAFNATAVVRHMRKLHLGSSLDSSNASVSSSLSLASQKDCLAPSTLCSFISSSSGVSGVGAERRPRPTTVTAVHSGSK

PKCθ = target: T2, PKCθ (Homo sapiens, UniProt Q04759); assay: HOTSPOT radiometric kinase assay; format: biochemical; conditions: 50 nM, 10 μM ATP
T2 construct: purchased Reaction Biology Corp
T2 sequence (Q04759 whole entry): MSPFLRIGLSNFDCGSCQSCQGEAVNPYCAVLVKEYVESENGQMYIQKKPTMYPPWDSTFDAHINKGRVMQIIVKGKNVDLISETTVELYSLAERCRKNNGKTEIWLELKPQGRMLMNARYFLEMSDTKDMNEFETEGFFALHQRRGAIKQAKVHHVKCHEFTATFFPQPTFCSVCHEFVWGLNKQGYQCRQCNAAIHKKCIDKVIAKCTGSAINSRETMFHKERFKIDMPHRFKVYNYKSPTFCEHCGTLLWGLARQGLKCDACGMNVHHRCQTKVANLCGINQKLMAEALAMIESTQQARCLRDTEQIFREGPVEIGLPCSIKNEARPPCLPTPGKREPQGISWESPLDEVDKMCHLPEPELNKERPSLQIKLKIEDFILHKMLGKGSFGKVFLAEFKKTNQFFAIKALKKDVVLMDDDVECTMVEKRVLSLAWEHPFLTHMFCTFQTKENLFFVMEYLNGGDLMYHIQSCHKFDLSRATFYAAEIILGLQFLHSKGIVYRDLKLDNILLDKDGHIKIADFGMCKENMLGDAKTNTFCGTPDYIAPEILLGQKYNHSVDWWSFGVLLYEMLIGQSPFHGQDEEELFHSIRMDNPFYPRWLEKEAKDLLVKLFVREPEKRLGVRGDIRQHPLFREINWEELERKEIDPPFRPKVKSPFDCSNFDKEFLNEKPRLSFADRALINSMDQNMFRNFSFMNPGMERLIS

PKG1β = target: T3, PKG1β (Homo sapiens, UniProt Q13976); assay: HOTSPOT radiometric kinase assay; format: biochemical; conditions: 50 nM, 10 μM ATP
T3 construct: purchased Reaction Biology Corp
T3 sequence (Q13976 1-686 isoform Q13976-2): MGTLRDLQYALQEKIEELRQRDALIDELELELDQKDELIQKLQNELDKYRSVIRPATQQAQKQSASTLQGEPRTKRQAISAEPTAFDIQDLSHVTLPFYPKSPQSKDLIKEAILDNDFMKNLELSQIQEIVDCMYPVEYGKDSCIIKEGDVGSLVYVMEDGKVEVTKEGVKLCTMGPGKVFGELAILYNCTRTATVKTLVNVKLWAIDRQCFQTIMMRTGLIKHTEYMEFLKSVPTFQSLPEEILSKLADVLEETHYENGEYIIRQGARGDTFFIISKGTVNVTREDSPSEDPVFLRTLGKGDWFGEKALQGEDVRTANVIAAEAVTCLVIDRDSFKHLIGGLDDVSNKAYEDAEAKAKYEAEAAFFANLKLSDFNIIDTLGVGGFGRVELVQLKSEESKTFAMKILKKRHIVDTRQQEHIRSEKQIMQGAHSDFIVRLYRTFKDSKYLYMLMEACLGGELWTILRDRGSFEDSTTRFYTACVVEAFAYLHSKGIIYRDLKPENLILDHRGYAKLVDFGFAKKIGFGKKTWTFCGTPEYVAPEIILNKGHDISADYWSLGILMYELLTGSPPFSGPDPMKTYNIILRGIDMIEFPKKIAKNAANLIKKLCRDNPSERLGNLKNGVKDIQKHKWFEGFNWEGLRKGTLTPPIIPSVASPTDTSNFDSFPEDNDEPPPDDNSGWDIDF

ERBB2/HER2 = ERBB2/HER2 (Homo sapiens, UniProt P04626); assay: HOTSPOT radiometric kinase assay
Chain of ERBB2/HER2 (P04626 23-1255): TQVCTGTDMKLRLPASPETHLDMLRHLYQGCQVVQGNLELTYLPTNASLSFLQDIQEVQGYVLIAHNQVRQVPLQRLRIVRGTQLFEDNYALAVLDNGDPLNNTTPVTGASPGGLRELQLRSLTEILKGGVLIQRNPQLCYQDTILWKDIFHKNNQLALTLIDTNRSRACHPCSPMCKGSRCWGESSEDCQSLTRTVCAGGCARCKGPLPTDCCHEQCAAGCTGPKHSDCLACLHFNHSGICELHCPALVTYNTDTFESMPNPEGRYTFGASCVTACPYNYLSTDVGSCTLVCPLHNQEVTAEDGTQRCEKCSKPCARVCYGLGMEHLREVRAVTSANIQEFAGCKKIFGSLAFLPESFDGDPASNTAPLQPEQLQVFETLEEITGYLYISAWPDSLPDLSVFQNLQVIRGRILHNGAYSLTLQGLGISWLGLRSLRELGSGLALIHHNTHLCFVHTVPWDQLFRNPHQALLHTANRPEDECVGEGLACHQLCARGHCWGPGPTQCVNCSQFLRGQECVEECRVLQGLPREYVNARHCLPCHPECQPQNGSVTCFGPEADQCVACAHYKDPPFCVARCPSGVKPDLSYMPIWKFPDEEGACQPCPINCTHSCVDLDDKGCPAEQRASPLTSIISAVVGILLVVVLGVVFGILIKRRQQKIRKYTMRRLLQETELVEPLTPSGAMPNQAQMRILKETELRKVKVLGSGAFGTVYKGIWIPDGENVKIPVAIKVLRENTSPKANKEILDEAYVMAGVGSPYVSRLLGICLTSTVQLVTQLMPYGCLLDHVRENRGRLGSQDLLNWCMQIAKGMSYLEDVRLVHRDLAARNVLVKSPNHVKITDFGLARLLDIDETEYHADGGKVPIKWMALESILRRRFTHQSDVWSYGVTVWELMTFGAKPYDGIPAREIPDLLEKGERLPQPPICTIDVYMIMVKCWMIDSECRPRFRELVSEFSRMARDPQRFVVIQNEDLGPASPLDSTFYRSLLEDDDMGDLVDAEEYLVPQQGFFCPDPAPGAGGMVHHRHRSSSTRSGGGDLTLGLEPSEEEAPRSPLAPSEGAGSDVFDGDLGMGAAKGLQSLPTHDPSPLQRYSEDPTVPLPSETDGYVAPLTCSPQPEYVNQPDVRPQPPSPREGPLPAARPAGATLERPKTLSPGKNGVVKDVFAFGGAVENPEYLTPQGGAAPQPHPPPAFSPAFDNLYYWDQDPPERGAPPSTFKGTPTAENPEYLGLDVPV

PKCα = PKCα (Homo sapiens, UniProt P17252); assay: HOTSPOT radiometric kinase assay
GSK3β = GSK3β (Homo sapiens, UniProt P49841); assay: HOTSPOT radiometric kinase assay
STK39/STLK3 = target: T4, STK39/STLK3 (Homo sapiens, UniProt Q9UEW8); assay: HOTSPOT radiometric kinase assay; format: biochemical; conditions: 50 nM, 10 μM ATP
T4 construct: purchased Reaction Biology Corp

DYRK1A = target: T5, DYRK1A (Homo sapiens, UniProt Q13627); assay: HOTSPOT radiometric kinase assay; format: biochemical; conditions: 50 nM, 10 μM ATP
T5 construct: purchased Reaction Biology Corp

PKG1α = PKG1α (Homo sapiens, UniProt Q13976); assay: HOTSPOT radiometric kinase assay; format: biochemical; conditions: 50 nM, 10 μM ATP
Chain of PKG1α (Q13976 whole entry): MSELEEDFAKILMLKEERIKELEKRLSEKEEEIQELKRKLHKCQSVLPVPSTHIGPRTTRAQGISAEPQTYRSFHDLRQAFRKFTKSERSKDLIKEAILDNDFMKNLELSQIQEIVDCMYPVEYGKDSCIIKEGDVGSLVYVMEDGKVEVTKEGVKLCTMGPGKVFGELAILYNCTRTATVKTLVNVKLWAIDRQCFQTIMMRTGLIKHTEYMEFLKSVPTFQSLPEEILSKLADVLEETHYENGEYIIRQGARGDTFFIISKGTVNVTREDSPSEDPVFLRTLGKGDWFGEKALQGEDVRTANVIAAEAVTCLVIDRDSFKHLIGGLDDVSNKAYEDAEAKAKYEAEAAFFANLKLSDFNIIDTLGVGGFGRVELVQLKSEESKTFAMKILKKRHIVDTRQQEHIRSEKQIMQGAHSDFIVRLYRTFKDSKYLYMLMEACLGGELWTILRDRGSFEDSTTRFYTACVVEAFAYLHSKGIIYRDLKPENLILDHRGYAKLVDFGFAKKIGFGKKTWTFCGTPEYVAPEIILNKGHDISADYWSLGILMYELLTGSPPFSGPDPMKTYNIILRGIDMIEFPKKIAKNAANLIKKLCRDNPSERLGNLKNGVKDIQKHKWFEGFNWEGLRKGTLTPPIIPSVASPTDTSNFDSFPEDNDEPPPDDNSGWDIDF

CK1α1 = CK1α1 (Homo sapiens, UniProt P48729); assay: HOTSPOT radiometric kinase assay
MAP2K1 (MEK1) = MAP2K1 (MEK1) (Homo sapiens, UniProt Q02750); assay: HOTSPOT radiometric kinase assay
Chain of MAP2K1 (MEK1) (Q02750 whole entry): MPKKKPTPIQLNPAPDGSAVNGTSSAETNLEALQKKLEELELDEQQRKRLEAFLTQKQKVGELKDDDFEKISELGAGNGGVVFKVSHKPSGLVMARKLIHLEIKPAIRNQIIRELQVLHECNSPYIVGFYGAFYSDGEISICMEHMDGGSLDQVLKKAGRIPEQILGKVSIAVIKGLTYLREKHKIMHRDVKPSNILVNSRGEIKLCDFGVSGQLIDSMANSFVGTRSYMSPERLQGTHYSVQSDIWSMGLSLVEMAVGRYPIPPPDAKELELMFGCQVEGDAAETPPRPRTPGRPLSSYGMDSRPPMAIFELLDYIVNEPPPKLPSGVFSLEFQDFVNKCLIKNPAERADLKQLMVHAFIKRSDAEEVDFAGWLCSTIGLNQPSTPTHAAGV

ERK1 = ERK1 (Homo sapiens, UniProt P27361); assay: HOTSPOT radiometric kinase assay
AKT1 = AKT1 (Homo sapiens, UniProt P31749); assay: HOTSPOT radiometric kinase assay
Chain of AKT1 (P31749 whole entry): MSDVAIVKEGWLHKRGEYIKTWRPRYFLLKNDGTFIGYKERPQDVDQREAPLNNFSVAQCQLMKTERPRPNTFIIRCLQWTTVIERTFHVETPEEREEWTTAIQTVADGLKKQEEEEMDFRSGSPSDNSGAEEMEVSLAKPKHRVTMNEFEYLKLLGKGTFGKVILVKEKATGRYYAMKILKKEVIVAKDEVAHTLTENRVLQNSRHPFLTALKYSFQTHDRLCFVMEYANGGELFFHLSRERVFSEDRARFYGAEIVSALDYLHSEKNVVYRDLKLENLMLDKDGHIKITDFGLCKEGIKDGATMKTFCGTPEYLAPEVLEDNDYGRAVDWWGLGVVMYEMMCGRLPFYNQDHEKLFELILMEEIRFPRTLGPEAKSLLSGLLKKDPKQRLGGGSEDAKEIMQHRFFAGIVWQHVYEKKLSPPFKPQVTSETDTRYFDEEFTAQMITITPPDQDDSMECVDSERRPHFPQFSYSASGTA

CLK1 = target: T6, CLK1 (Homo sapiens, UniProt P49759); assay: HOTSPOT radiometric kinase assay; format: biochemical; conditions: 50 nM, 10 μM ATP
T6 construct: purchased Reaction Biology Corp
T6 sequence (P49759 whole entry): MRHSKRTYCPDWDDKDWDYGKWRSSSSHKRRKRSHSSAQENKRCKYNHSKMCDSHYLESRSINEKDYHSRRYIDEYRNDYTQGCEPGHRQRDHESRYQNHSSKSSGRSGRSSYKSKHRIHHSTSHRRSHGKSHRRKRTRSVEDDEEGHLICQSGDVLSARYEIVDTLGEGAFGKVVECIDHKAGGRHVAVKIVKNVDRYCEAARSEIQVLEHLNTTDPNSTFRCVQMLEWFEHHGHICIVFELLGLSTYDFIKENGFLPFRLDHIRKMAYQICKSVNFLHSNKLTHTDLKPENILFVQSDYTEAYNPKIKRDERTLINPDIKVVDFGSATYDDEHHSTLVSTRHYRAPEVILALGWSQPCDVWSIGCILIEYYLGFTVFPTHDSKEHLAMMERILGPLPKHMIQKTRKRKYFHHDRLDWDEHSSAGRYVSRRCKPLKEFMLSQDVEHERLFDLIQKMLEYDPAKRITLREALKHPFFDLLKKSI

LATS1 = target: T7, LATS1 (Homo sapiens, UniProt O95835); assay: HOTSPOT radiometric kinase assay; format: biochemical; conditions: 50 nM, 10 μM ATP
T7 construct: purchased Reaction Biology Corp
T7 sequence (O95835 1-1130): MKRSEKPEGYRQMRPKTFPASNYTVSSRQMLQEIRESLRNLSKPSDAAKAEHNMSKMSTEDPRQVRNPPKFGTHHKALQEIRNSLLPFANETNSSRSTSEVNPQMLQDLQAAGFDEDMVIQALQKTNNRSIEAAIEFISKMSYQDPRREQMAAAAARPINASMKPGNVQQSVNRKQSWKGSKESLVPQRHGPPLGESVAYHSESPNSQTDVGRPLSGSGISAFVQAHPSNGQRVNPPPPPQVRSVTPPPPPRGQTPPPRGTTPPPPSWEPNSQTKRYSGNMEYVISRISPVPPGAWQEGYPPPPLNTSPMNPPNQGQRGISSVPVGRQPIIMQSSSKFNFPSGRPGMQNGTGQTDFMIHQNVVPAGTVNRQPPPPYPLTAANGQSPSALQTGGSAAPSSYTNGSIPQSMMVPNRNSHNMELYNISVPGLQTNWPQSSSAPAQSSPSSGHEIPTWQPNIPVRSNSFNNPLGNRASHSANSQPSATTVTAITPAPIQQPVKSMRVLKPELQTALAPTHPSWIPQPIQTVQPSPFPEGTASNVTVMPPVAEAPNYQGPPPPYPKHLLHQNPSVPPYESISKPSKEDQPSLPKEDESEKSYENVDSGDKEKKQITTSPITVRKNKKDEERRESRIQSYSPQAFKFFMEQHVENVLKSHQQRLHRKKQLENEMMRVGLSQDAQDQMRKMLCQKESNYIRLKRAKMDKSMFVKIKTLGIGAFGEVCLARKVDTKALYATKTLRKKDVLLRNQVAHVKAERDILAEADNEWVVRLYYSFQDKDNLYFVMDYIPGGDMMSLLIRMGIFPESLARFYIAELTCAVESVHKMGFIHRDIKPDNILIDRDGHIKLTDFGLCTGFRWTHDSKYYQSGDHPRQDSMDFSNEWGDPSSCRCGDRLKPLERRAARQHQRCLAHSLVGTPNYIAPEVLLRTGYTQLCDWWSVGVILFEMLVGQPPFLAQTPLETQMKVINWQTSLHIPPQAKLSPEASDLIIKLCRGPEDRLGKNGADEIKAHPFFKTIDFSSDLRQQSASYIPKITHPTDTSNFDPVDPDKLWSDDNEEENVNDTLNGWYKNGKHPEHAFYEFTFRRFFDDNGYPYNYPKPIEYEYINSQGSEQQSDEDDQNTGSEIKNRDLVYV

PKADJ = target: T8, PKADJ (Homo sapiens, UniProt P17612); assay: modified sandwich ELISA, PKADJ holoenzyme; format: biochemical
T8 construct: gene fusion between the first exon of the gene encoding the Heat Shock Protein 40 (HSP40) family member DNAJB1 and the second exon; the other entry of the earlier key: DNAJB1 (P25685, DnaJ homolog subfamily B member 1)
Procedure: The reaction and readout components of this assay were than optimized including optimal reactant concentrations for the kinase reaction suitable to identify both inhibitors and activators of PKAJ.
The PKADJ holoenzyme was treated with the test compounds in the reaction step where the holoenzyme was dissociated to release the activated catalytic unit (PKADJc).

[2] = target: RIα2:JPKAcα2 chimeric kinase holoenzyme (Homo sapiens, UniProt P17612); assay: JPKAcα chimeric kinase holoenzyme ELISA dose response
Procedure: Compounds were tested to determine an IC50 value for inhibitory activity against RIα2:JPKAcα2 chimeric kinase holoenzyme. A 3× dose-response curve was set up over a final compound concentration range of 0-10 μM containing 1 μM cAMP, 50 μM ATP, and 0.4% DMSO in 100 mM Tris-HCl pH 7.5 (all final concentrations). A no cAMP/ATP control was also included for background normalization.
The % normalized activity measures were then fit to the following equation using a nonlinear regression least-squares fit with a variable slope (GraphPad Prism Software, San Diego, CA) an IC50 value was calculated using the following formula.

DYRK4 = target: T9, DYRK4 (Homo sapiens, UniProt Q9NR20); assay: HOTSPOT radiometric kinase assay; format: biochemical; conditions: 10 μM ATP
T9 construct: purchased Reaction Biology Corp

Cn1cnc(Br)c1C1=CN(c2ncnc3nc[nH]c23)CCS1 [Compound 1a, Aplithianine A1]
IC50 (PKAα): 0.043 to 0.189 µM
PKAα % inhibition (PKAα; 50 nM, 10 μM ATP): 78%
inhibition at 0.05 µM (DYRK2): > 50%
IC50 (wide-type PKA (wt-PKA)): 1.22 µM
IC50 (FLT1/VEGFR1): 18 to 65 µM
number of kinases more potent targets compared to PKA [1]: 29
IC50 (CAMK1δ): 18 to 65 µM
inhibition at 0.05 µM (PKCθ): > 50%
inhibition at 0.05 µM (PKG1β): > 50%
IC50 (ERBB2/HER2): 18 to 65 µM
IC50 (PKCα): 0.8 to 6.6 µM
IC50 (GSK3β): 0.043 to 0.189 µM
inhibition at 0.05 µM (STK39/STLK3): > 50%
inhibition at 0.05 µM (DYRK1A): > 50%
inhibition at 0.05 µM (PKG1α): > 50%
IC50 (CK1α1): 0.8 to 6.6 µM
IC50 (MAP2K1 (MEK1)): 18 to 65 µM
IC50 (ERK1): 0.8 to 6.6 µM
IC50 (AKT1): 0.043 to 0.189 µM
inhibition at 0.05 µM (CLK1): > 50%
inhibition at 0.05 µM (LATS1): > 50%

Cn1cncc1C1=CN(c2ncnc3[nH]c(=O)[nH]c23)CCS1 [Compound 2, Aplithianine B]
IC50 (wide-type PKA (wt-PKA)): 45 µM
fold less potent than 1 against PKADJ (PKADJ; compared with compound 1): more than 60 fold
IC50 (PKADJ; modified sandwich ELISA, read-out: IC50 against PKADJ): 69 µM

O=C(NCCNC(=O)c1ccccn1)C1=CN(c2ncnc3nc[nH]c23)CCS1 [Compound 183A049C, N-(2-(picolinamido)ethyl)-4-(7H-purin-6-yl)-3,4-dihydro-2H-1,4-thiazine-6-carboxamide]
IC50 [2]: > 10 µM

NCCNC(=O)C1=CN(c2ncnc3[nH]cnc23)CCS1 [Compound 183A049E, N-(2-aminoethyl)-4-(7H-purin-6-yl)-3,4-dihydro-2H-1,4-thiazine-6-carboxamide]
IC50 [2]: 0.1 to 1 µM

O=C(NCCNC(=O)c1ccccc1)C1=CN(c2ncnc3nc[nH]c23)CCS1 [Compound 183A049F, N-(2-benzamidoethyl)-4-(7H-purin-6-yl)-3,4-dihydro-2H-1,4-thiazine-6-carboxamide]
IC50 [2]: > 10 µM

CC(=O)NCCNC(=O)C1=CN(c2ncnc3[nH]cnc23)CCS1 [Compound 183A050B, N-(2-acetamidoethyl)-4-(7H-purin-6-yl)-3,4-dihydro-2H-1,4-thiazine-6-carboxamide]
IC50 [2]: > 10 µM

COCCNC(=O)C1=CN(c2ncnc3[nH]cnc23)CCS1 [Compound 183A050C, N-(2-methoxyethyl)-4-(7H-purin-6-yl)-3,4-dihydro-2H-1,4-thiazine-6-carboxamide]
IC50 [2]: > 10 µM

O=C(NCCO)C1=CN(c2ncnc3[nH]cnc23)CCS1 [Compound 183A050D, N-(2-hydroxyethyl)-4-(7H-purin-6-yl)-3,4-dihydro-2H-1,4-thiazine-6-carboxamide]
IC50 [2]: > 10 µM

CNCCNC(=O)C1=CN(c2ncnc3nc[nH]c23)CCS1 [Compound 183A050E, N-(2-(methylamino)ethyl)-4-(7H-purin-6-yl)-3,4-dihydro-2H-1,4-thiazine-6-carboxamide]
IC50 [2]: 1.01 to 10 µM

NCCNC(=O)C1CN(c2ncnc3[nH]cnc23)CCS1 (stereo not drawn) [Compound 183A051C, N-(2-aminoethyl)-4-(7H-purin-6-yl)thiomorpholine-2-carboxamide]
IC50 [2]: > 10 µM

O=C1Nc2ccc(I)cc2/C1=C/c1cc(Br)c(O)c(Br)c1 [GW5074, reference compound]
IC50 (DYRK4): 3.66 µM
